Laboratory results taken from patent publication US8859573B2, “Pyrimidinone and pyridinone compounds for use in the treatment of diseases or conditions mediated by Lp-PLA2” (Glaxo Group Limited, priority 2010, dated 2014).
Structures can show the parent of a compound that is named as a salt.

Key:
[1] = target: T1, recombinant human Lp-PLA2 (Homo sapiens, UniProt Q13093); assay: Recombinant human Lp-PLA2 assay (rhLp-PLA2, PED6 assay); assay type: biochemical; details: upper limit for pIC50 in this assay is 9.3
T1 sequence (Q13093 22-441): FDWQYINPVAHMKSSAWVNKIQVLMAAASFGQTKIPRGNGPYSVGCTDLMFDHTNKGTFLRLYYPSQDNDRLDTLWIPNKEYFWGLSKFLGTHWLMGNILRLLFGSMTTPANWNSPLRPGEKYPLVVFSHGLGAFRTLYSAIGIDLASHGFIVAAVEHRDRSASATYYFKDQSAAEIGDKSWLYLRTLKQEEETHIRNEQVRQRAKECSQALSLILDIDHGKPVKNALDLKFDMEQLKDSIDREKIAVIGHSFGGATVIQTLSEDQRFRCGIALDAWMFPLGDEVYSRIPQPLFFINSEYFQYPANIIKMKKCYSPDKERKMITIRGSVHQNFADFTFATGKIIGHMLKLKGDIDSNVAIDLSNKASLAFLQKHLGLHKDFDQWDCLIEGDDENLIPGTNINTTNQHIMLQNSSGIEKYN
Text: (1) Recombinant Human Lp-PLA2 Assay (rhLp-PLA2) (Also Referred to as “PED6” Assay)
N-((6-(2,4-dinitrophenyl)amino)-hexanoyl)-2-(4,4-difluoro-5,7-dimethyl-4-bora-3a,4a-diaza-s-indacene-3-pentanoyl)-1-hexadecanoyl-sn-glycero-3-phosphoethanolamine, triethylammonium salt (PED6) is a commercially available fluorescently-labelled phospholipid, which is commercially available from Molecular Probes. There is a quenching para-nitro phenyl (PNP) group in the sn3 position and a Bodipy fluorescein (FL) group in the sn2 position. Upon cleavage with Lp-PLA2, the Bodipy F1 group is liberated and then may result in an increase in fluorescence. Inhibitors of Lp-PLA2 therefore prevent this cleavage and no fluorescent increase is observed.
The PED6 assay was run as an […] 10 μL assay. Compounds source plate was prepared by making 1:3 (by volume) serial dilution of the compounds into pure DMSO on 384-well microplate. Then, 0.01 μL of compounds on compound source plate were transferred into 384 well Greiner 784076 (black) plates by ECHO liquid dispenser. 5 μL of recombinant human Lp-PLA2 enzyme (2 nM rhLp-PLA2 in assay buffer of 50 mM HEPES, pH7.4, 150 mM NaCl, 1 mM CHAPS) was added to each well of the plate with compounds. Plates were centrifuged for 10 sec at 500 rpm. After 30 minutes preincubation, […] substrate (4 μM PED6 [from 5 mM DMSO stock] in assay buffer of 50 mM HEPES, pH7.4, 150 mM NaCl, 1 mM CHAPS) was added to 384 well Greiner 784076 (black) plates. Plates were centrifuged for 10 sec at 500 rpm. Plate was covered to protect from light and incubated for 20 min at room temperature. Plates were read for fluorescence intensity at ex: 480/em: 540 using ViewLux microplate imager. PIC50 data, curve and QC analysis was conducted by using XL fit module in Excel.

[2] = target: T2, Lp-PLA2 from plasma (Homo sapiens, UniProt Q13093); assay: Lp-PLA2 human plasma assay (Thio-PAF assay); assay type: biochemical; details: pooled human plasma; read-out: pIC50 values in the thio-PAF assay (converted)
T2 construct: from tissue; host or cells: pooled human plasma
T2 sequence (Q13093 22-441): T1 sequence (Q13093 22-441)
Text: (3) Lipoprotein-Associated Phospholipase A2 (Lp-PLA2) Human Plasma Assay (Also Referred to as “Thio-PAF Assay”)
The human plasma assay utilizes a thioester analog of PAF (phosphatidylcholine), where hydrolysis yields to the formation of a phospholipid containing a free thiol group. The amount of thiol is quantitated continuously by reacting with CPM (7-diethylamino-3-(4′-maleimidylphenyl)-4-methylcoumarin), a maleimide which increases in fluoresence after Michael addition of thiols. This assay may detect the activity of Lp-PLA2 from plasma, as determined by specific inhibition by Lp-PLA2 inhibitors.
The thio-PAF assay was run as a quenched 15 μL assay. Compounds source plate was prepared by making 1:3 (by volume) serial dilution of the compounds into pure DMSO on 384-well microplate. 0.01 μL of compounds on compound source plate were transferred to 384 well Greiner 784076 (black) low-volume plates by ECHO liquid dispenser. 8 μL pooled human plasma, which was previously aliquoted and frozen, was added. Plates were centrifuged for 10 sec at 500 rpm. After 30 minutes preincubation, 2 μL of substrate (2.5 mM thio-PAF, 3.2 mM NEM (N-ethylmaleimide) [made fresh daily in DMSO], and 32 μM CPM [from a DMSO stock] in assay buffer of 50 mM HEPES, pH7.4, 150 mM NaCl, 1 mM CHAPS was added to 384 well Greiner 784076 (black) low-volume plates by BRAVO liquid handling station. Plates were centrifuged for 10 sec at 500 rpm. Plate was covered to protect from light and incubated for 2 min at room temperature. Reaction was quenched with 5 μL of 5% aqueous trifluoroacetic acid (TFA). Plates were covered to protect from light and incubated for 40 min at room temperature. Plates were read at ex: 380/em: 485 using-Envision microplate reader. PIC50 data, curve and QC analysis was conducted by using XLFit module in Excel.

Structure (SMILES) | IC50 [1] | IC50 [2]
N#Cc1cc(COc2ccn(Cc3cccnc3)c(=O)n2)ccc1Oc1ccc(Cl)c(C(F)(F)F)c1 [Example 4, 2-(4-Chloro-3-(trifluoromethyl)phenoxy)-5-(((2-oxo-1-(pyridin-3-ylmethyl)-1,2-dihydropyrimidin-4-yl)oxy)methyl)benzonitrile] | ≤ 0.001 µM | ≤ 0.1 µM
CCn1ccc(OCc2ccc(Oc3ccc(Cl)c(C(F)(F)F)c3)c(C#N)c2)nc1=O [Example 5, 2-{[4-Chloro-3-(trifluoromethyl)phenyl]oxy}-5-{[(1-ethyl-2-oxo-1,2-dihydro-4-pyrimidinyl)oxy]methyl}benzonitrile] | ≤ 0.001 µM | ≤ 1 µM
Cn1cc(Cn2ccc(OCc3ccc(Oc4ccc(Cl)c(C(F)(F)F)c4)cc3)nc2=O)cn1 [Example 8, 4-{[(4-{[4-Chloro-3-(trifluoromethyl)phenyl]oxy}phenyl)methyl]oxy}-1-[(1-methyl-1H-pyrazol-4-yl)methyl]-2(1H)-pyrimidinone] | ≤ 0.001 µM | ≤ 0.1 µM
O=c1nc(OCCc2ccc(Oc3ccc(Cl)c(C(F)(F)F)c3)cc2)ccn1Cc1ccncc1 [Example 9, 4-{[2-(4-{[4-Chloro-3-(trifluoromethyl)phenyl]oxy}phenyl)ethyl]oxy}-1-(4-pyridinylmethyl)-2(1H)-pyrimidinone] | ≤ 0.001 µM | ≤ 0.1 µM
O=c1nc(OCCc2ccc(Oc3ccc(Cl)c(C(F)(F)F)c3)cc2)ccn1Cc1cccnc1 [Example 10, 4-{[2-(4-{[4-Chloro-3-(trifluoromethyl)phenyl]oxy}phenyl)ethyl]oxy}-1-(3-pyridinylmethyl)-2(1H)-pyrimidinone] | ≤ 0.001 µM | ≤ 0.1 µM
O=c1nc(OCCc2ccc(Oc3ccc(Cl)c(C(F)(F)F)c3)cc2)ccn1Cc1cncnc1 [Example 11, 4-{[2-(4-{[4-Chloro-3-(trifluoromethyl)phenyl]oxy}phenyl)ethyl]oxy}-1-(5-pyrimidinylmethyl)-2(1H)-pyrimidinone] | ≤ 0.001 µM | ≤ 0.1 µM
Cn1cc(Cn2ccc(OCCc3ccc(Oc4ccc(Cl)c(C(F)(F)F)c4)cc3)nc2=O)cn1 [Example 12, 4-{[2-(4-{[4-Chloro-3-(trifluoromethyl)phenyl]oxy}phenyl)ethyl]oxy}-1-[(1-methyl-1H-pyrazol-4-yl)methyl]-2(1H)-pyrimidinone] | ≤ 0.001 µM | ≤ 0.1 µM
Cn1cc(Cn2ccc(OCc3cnc(Oc4ccc(Cl)c(C(F)(F)F)c4)c(F)c3)nc2=O)cn1 [Example 17, 4-{[(6-{[4-Chloro-3-(trifluoromethyl)phenyl]oxy}-5-fluoro-3-pyridinyl)methyl]oxy}-1-[(1-methyl-1H-pyrazol-4-yl)methyl]-2 (1H)-pyrimidinone] | ≤ 0.001 µM | ≤ 0.1 µM
Cn1cc(Cn2ccc(OCCc3cnc(Oc4ccc(Cl)c(C(F)(F)F)c4)c(F)c3)nc2=O)cn1 [Example 18, 4-{[2-(6-{[4-Chloro-3-(trifluoromethyl)phenyl]oxy}-5-fluoro-3-pyridinyl)ethyl]oxy}-1-[(1-methyl-1H-pyrazol-4-yl)methyl]-2(1H)-pyrimidinone] | ≤ 0.001 µM | ≤ 0.1 µM
CCn1ccc(OCc2ccc(Oc3ccc(Cl)c(C(F)(F)F)c3)cc2)cc1=O [Example 23, 4-{[(4-{[4-Chloro-3-(trifluoromethyl)phenyl]oxy}phenyl)methyl]oxy}-1-ethyl-2(1H)-pyridinone] | > 0.01 µM | > 10 µM
Cn1cc(Cn2cc(Cl)c(OCCc3cnc(Oc4ccc(Cl)c(C(F)(F)F)c4)c(F)c3)nc2=O)cn1 [Example 31, 5-Chloro-4-(2-(6-(4-chloro-3-(trifluoromethyl)phenoxy)-5-fluoropyridin-3-yl)ethoxy)-1-((1-methyl-1H-pyrazol-4-yl)methyl)pyrimidin-2(1H)-one] | ≤ 0.001 µM | ≤ 0.1 µM
COc1ncc(Cn2cc(Cl)c(OCCc3cnc(Oc4ccc(Cl)c(C(F)(F)F)c4)c(F)c3)nc2=O)cn1 [Example 32, 5-chloro-4-(2-(6-(4-chloro-3-(trifluoromethyl)phenoxy)-5-fluoropyridin-3-yl)ethoxy)-1-((2-methoxypyrimidin-5-yl)methyl)pyrimidin-2(1H)-one] | ≤ 0.001 µM | ≤ 0.1 µM
Cn1cc(Cn2cc(F)c(OCCc3cnc(Oc4ccc(Cl)c(C(F)(F)F)c4)c(F)c3)nc2=O)cn1 [Example 33, 4-(2-(6-(4-chloro-3-(trifluoromethyl)phenoxy)-5-fluoropyridin-3-yl)ethoxy)-5-fluoro-1-((1-methyl-1H-pyrazol-4-yl)methyl)pyrimidin-2(1H)-one] | ≤ 0.001 µM | ≤ 0.1 µM
Cn1cc(Cn2cc(F)c(OCCc3ccc(Oc4ccc(C(F)(F)F)nc4)c(F)c3)nc2=O)cn1 [Example 41, 5-fluoro-4-(3-fluoro-4-((6-(trifluoromethyl)pyridin-3-yl)oxy)phenethoxy)-1-((1-methyl-1H-pyrazol-4-yl)methyl)pyrimidin-2(1H)-one] | ≤ 0.001 µM | ≤ 0.1 µM
COc1ncc(Cn2cc(Cl)c(OCCc3ccc(Cc4ccc(Cl)c(C(F)(F)F)c4)cc3)nc2=O)cn1 [Example 45, 5-chloro-4-(4-(4-chloro-3-(trifluoromethyl)benzyl)phenethoxy)-1-((2-methoxypyrimidin-5-yl)methyl)pyrimidin-2(1H)-one] | ≤ 0.001 µM | ≤ 0.1 µM
Cn1cc(Cn2cc(F)c(OCCc3ccc(Cc4ccc(Cl)c(C(F)(F)F)c4)cc3)nc2=O)cn1 [Example 46, 4-(4-(4-chloro-3-(trifluoromethyl)benzyl)phenethoxy)-5-fluoro-1-((1-methyl-1H-pyrazol-4-yl)methyl)pyrimidin-2(1H)-one] | ≤ 0.001 µM | ≤ 0.1 µM
COc1ncc(Cn2cc(F)c(OCCc3ccc(Cc4ccc(Cl)c(C(F)(F)F)c4)cc3)nc2=O)cn1 [Example 47, 4-(4-(4-chloro-3-(trifluoromethyl)benzyl)phenethoxy)-5-fluoro-1-((2-methoxypyrimidin-5-yl)methyl)pyrimidin-2(1H)-one] | ≤ 0.001 µM | ≤ 0.1 µM
Cn1cc(Cn2cc(Cl)c(OCc3ccc(Oc4ccc(F)c(F)c4)c(F)c3)nc2=O)cn1 [Example 53, 5-chloro-4-((4-(3,4-difluorophenoxy)-3-fluorobenzyl)oxy)-1-((1-methyl-1H-pyrazol-4-yl)methyl)pyrimidin-2 (1H)-one] | ≤ 0.001 µM | ≤ 0.1 µM
Cn1cc(Cn2cc(F)c(OCCc3ccc(Oc4ccc(F)c(F)c4)c(F)c3)nc2=O)cn1 [Example 59, 4-(4-(3,4-difluorophenoxy)-3-fluorophenethoxy)-5-fluoro-1-((1-methyl-1H-pyrazol-4-yl)methyl)pyrimidin-2(1H)-one, trifluoroacetic acid salt] | ≤ 0.001 µM | ≤ 0.1 µM
CCn1cc(F)c(OCCc2ccc(Oc3cccc(C(F)(F)F)n3)cc2)nc1=O [Example 63, 1-ethyl-5-fluoro-4-(4-((6-(trifluoromethyl)pyridin-2-yl)oxy)phenethoxy)pyrimidin-2(1H)-one, trifluoroacetic acid salt] | > 0.01 µM | –
